pIC50: −log10 of the molar value. Like-named read-outs stand apart in the source and are kept apart here.
Key:
[1] = tested on: T-Rex 293 cell line SC3 cells having increased expression of androgen receptor protein; assay: Cellular growth inhibition, T-Rex 293 SC3 cells with increased androgen receptor expression (doxycycline), CellTiter-Glo; type: cell-based; details: T-Rex 293 SC3 cells with increased androgen receptor expression (exposed to 10 ng/mL doxycycline), 72 hours, CellTiter-Glo; read-out: GI50
Procedure, shortened: (§1)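 SC3, a T-Rex 293 clone with doxycycline-inducible wild-type androgen receptor, was seeded in phenol red-free DMEM with 10% charcoal-dextran FBS, with or without 10 ng/mL doxycycline. Compound added at 24 h (0.5% DMSO) for 72 h at 37° C. CellTiter-Glo 2.0 luminescence; GI50 from four-parameter fit.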

[2] = tested on: T-Rex 293 cell line SC3 cells lacking increased expression of androgen receptor protein; assay: Cellular growth inhibition, T-Rex 293 SC3 cells lacking increased androgen receptor expression (no doxycycline), CellTiter-Glo; type: cell-based; details: T-Rex 293 SC3 cells lacking increased androgen receptor expression (not exposed to doxycycline), 72 hours, CellTiter-Glo; read-out: GI50
Procedure, shortened: as §1

VCaP cells = assay: Cellular growth inhibition assay for VCaP cells, CellTiter-Glo; type: cell-based, human; details: VCaP cells, 72 hours, CellTiter-Glo, read-out: GI50
Procedure, shortened: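 GI50 values come from four-parameter curve fits of luminescence data normalized to a zero baseline. Compound, in medium with 0.5% DMSO, was added one day after plating and left for 72 h before CellTiter-Glo 2.0 addition.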

[3] = tested on: T-Rex 293 cell line SC cells having increased expression of progesterone receptor isoform B protein; assay: Cellular growth inhibition, T-Rex 293 SC cells with increased progesterone receptor isoform B expression (doxycycline), CellTiter-Glo; type: cell-based; details: progesterone receptor isoform B induced with 10 ng/mL doxycycline, 72 hours
Method: (§2) The following types of cells were prepared for this experiment: (i) a T-Rex 293 cell line having increased expression of progesterone receptor isoform B protein due to exposure to doxycycline and (ii) a T-Rex 293 cell line lacking increased expression of progesterone receptor isoform B protein. Ability of the test compounds to inhibit proliferation of the foregoing cell types was evaluated according to the procedures set forth below.
(§3) The doxycycline-inducible progesterone receptor isoform B protein expressing cell line was established using the following protocol: T-Rex 293 cells were purchased from Invitrogen (Cat #R71007) and transfected using Lipofectamine 2000 with the wild-type progesterone receptor B protein sequence cloned into the pcDNA4/TO vector. Transfected cells were selected using 400 μg/mL Zeocin (Invitrogen Cat #R25001). Following selection, single clones were raised and maintained in Dulbecco's Modified Eagle Medium (DMEM) supplemented with 10% w/w Tetracycline-free fetal bovine serum (FBS) and 250 μg/mL Zeocin. Clones were analyzed for expression of progesterone receptor isoform B protein in the presence and absence of 10 ng/ml doxycycline (Sigma Cat #D9891), and a single doxycycline-inducible clone (hereinafter “SC”) was selected for use in downstream assays.
(§4) The SC cells were seeded on poly-D-lysine coated, black clear-bottom 384-well plates at 2500/well, in 25 μL Phenol Red Free Dulbecco's Modified Eagle Medium (DMEM) supplemented with 10% w/w charcoal-dextran treated fetal bovine serum (FBS) and 1% w/w pen-strep, with or without 10 ng/mL doxycycline. Pen-Strep is a commercially available mixture of penicillin G and streptomycin, which is used in mammalian cell culture media to prevent bacterial contamination. Phenol Red Free Dulbecco's Modified Eagle Medium (DMEM) supplemented with 10% w/w charcoal-dextran treated fetal bovine serum (FBS) and 1% w/w pen-strep, with or without 10 ng/mL doxycycline is herein referred to as Treatment Medium. Following seeding of cells in the plates, the plates were spun at 300×g for 30 seconds, then equilibrated to room temperature for 30 minutes, and then deposited in a humidified tissue culture incubator maintained at 37° C. with 5% CO2.
(§5) At 24 hours after seeding of the cells, dilutions of test compound were prepared in DMSO and dissolved in Treatment Medium, to achieve a final DMSO concentration of 0.5% w/w, thereby providing the Test Compound Solution. A 25 μL aliquot of the Test Compound Solution was added to cells in the well plates. An equal volume of a solution containing DMSO and Treatment Medium was used as a negative control. Following treatment of cells with Test Compound Solution or said equal volume of a solution containing DMSO and Treatment Medium, the plates were spun at 300×g for 30 seconds, and then left in an incubator for 72 hours.
(§6) At the end of the treatment duration, cell viability was quantified with CellTiter-Glo 2.0 reagent (Promega Cat #G9243). For this purpose, plates were equilibrated to room temperature for 30 minutes, and then 25 μL of CellTiter-Glo 2.0 reagent was added to cells in the plate wells. Plates were then agitated on a shaker for two minutes at 500 rpm and subsequently incubated at room temperature for 10 minutes. Following incubation, the plates were spun at 3000×g for 30 seconds, then sealed with an optical adhesive cover, and luminescence readings were measured with an EnVision Plate Reader (Perkin Elmer).
(§7) Data was normalized using zero luminescence for baseline. A four-parameter non-linear regression curve fit was applied to dose-response data in GraphPad Prism data analysis software to determine the half-maximal growth inhibitory concentration (GI50) for each test compound.

[4] = tested on: T-Rex 293 cell line SC cells lacking increased expression of progesterone receptor isoform B protein; assay: Cellular growth inhibition, T-Rex 293 SC cells lacking increased progesterone receptor isoform B expression (no doxycycline), CellTiter-Glo; type: cell-based; details: T-Rex 293 SC cells not exposed to doxycycline, 72 hours
Method: as §2, §3, §4, §5, §6, §7

T47D cells = assay: Cellular growth inhibition assay for T47D cells, CellTiter-Glo; type: cell-based, human; details: 72 hours treatment, CellTiter-Glo 2.0
Procedure, shortened: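 Luminescence from CellTiter-Glo 2.0 after 72 h of compound exposure gives the viability signal. Cells grew in insulin-supplemented (0.2 units/mL) DMEM with 10% FBS and were treated one day after seeding at 0.5% DMSO. GI50 values come from four-parameter nonlinear regression.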

[5] = target: progesterone receptor ligand binding domain (LBD) (Homo sapiens (Human), UniProt P06401); assay: FP assay for binding affinity to progesterone receptor (PolarScreen Progesterone Receptor Competitor Assay); details: GST-tagged PR LBD, Fluormone tracer, fluorescence polarization, 2 hours at room temperature
Method: Compounds were tested using the PolarScreen™ Progesterone Receptor Competitor Assay Kit (Life Technologies Cat #A15905 or a15906), as per the manufacturer's instructions. Briefly, GST-tagged PR LBD, Fluormone tracer, and compound were mixed and incubated for 2 hours at room temperature in the dark. Following incubation, the plates were spun at 3000×g for 30 seconds, then sealed with an optical adhesive cover, and fluorescence polarization was measured using appropriate excitation and emission filters with an EnVision Plate Reader (Perkin Elmer). Compound concentration vs. mP value were plotted in Prism (GraphPad). A four-parameter non-linear regression curve fit was applied to dose-response data to determine the half-maximal inhibitory concentration (IC50) for each test compound.

Chain of progesterone receptor ligand binding domain (LBD) (P06401 679-913): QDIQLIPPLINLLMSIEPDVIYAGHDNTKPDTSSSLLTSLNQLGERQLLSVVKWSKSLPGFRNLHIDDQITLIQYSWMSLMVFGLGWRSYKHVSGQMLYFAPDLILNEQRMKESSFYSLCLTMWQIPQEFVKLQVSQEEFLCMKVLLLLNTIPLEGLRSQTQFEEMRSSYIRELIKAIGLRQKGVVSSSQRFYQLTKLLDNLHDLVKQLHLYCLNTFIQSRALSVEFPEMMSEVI

Row | Structure (SMILES) | GI50 [1] [nM] | GI50 [2] [nM] | GI50 (VCaP cells; Homo sapiens) [nM] | GI50 [3] [nM] | GI50 [4] [nM] | GI50 (T47D cells; Homo sapiens) [nM] | GI50 (VCaP cells) [nM] | GI50 (T47D cells) [nM] | pIC50 [5]
1 | CN(c1ccc(Oc2ccc(C(C)(C)O)cc2-c2cn(C)c(=O)c3[nH]ccc23)cc1)C1CN(c2ccc(C(=O)N[C@H]3CC[C@H](Oc4ccc(C#N)c(Cl)c4)CC3)nn2)C1 [I-138] | < 500 | < 500 | < 500 | < 500 | < 500 | < 500 | – | – | –
2 | Cn1cc(-c2cc(S(=O)(=O)CCCCCN3CCN(c4ccc(C(=O)N[C@H]5CC[C@H](Oc6ccc(C#N)c(Cl)c6)CC5)nn4)CC3)ccc2Oc2ccc(F)cc2F)c2cc[nH]c2c1=O [I-94] | < 500 | > 3000 | – | – | – | – | < 500 | 500 to 1500 | 6.30 to 7.30
3 | Cn1cc(-c2cc(C(C)(C)O)ccc2Oc2ccc(CCOC3CCN(c4ccc(C(=O)N[C@H]5CC[C@H](Oc6ccc(C#N)c(Cl)c6)CC5)nn4)CC3)cc2)c2cc[nH]c2c1=O [I-103] | < 500 | < 500 | < 500 | < 500 | < 500 | < 500 | – | – | –
4 | Cn1cc(-c2cc(C(C)(C)O)ccc2Oc2ccc(CC3CCN(c4ccc(C(=O)N[C@H]5CC[C@H](Oc6ccc(C#N)c(Cl)c6)CC5)nn4)CC3)cc2)c2cc[nH]c2c1=O [I-101] | < 500 | 500 to 1500 | < 500 | < 500 | < 500 | < 500 | – | – | –
5 | CCS(=O)(=O)Nc1ccc(Oc2cccc(OCCOCCOCCOC3CCN(c4ccc(C(=O)N[C@H]5CC[C@H](Oc6ccc(C#N)c(Cl)c6)CC5)nn4)CC3)c2)c(-c2cn(C)c(=O)c3[nH]ccc23)c1 [I-2, N-[4-(3-chloro-4-cyano-phenoxy)cyclohexyl]-6-[4-[2-[2-[2-[3-[4-(ethylsulfonylamino)-2-(6-methyl-7-oxo-1H-pyrrolo[2,3-c]pyridin-4-yl)phenoxy]phenoxy]ethoxy]ethoxy]ethoxy]-1-piperidyl]pyridazine-3-carboxamide] | < 500 | 500 to 1500 | < 500 | < 500 | < 500 | < 500 | – | – | –
6 | CCS(=O)(=O)c1ccc(Oc2cccc(CCCCN3CC4(C3)CN(c3ccc(C(=O)N[C@H]5CC[C@H](Oc6ccc(C#N)c(Cl)c6)CC5)nn3)C4)c2F)c(-c2cn(C)c(=O)c3[nH]ccc23)c1 [I-47] | < 500 | < 500 | < 500 | < 500 | < 500 | < 500 | – | – | –
7 | Cn1cc(-c2cc(C(C)(C)O)ccc2Oc2ccc(N3CCN(c4ccc(C(=O)N[C@H]5CC[C@H](Oc6ccc(C#N)c(Cl)c6)CC5)nn4)CC3)cc2)c2cc[nH]c2c1=O [I-139] | < 500 | < 500 | – | < 500 | < 500 | – | < 500 | < 500 | –
8 | CN(CCOc1ccc(Oc2ccc(C(C)(C)O)cc2-c2cn(C)c(=O)c3[nH]ccc23)cc1)c1ccc(C(=O)N[C@H]2CC[C@H](Oc3ccc(C#N)c(Cl)c3)CC2)nn1 [I-98] | < 500 | < 500 | – | < 500 | < 500 | – | < 500 | – | –
9 | Cn1cc(-c2cc(C(C)(C)O)ccc2Oc2ccc(OCCN3CCN(c4ccc(C(=O)N[C@H]5CC[C@H](Oc6ccc(C#N)c(Cl)c6)CC5)nn4)CC3)cc2)c2cc[nH]c2c1=O [I-97] | < 500 | < 500 | < 500 | < 500 | < 500 | < 500 | – | – | –
10 | CCS(=O)(=O)Nc1ccc(Oc2cccc(N3CC(OC4CCN(c5ccc(C(=O)N[C@H]6CC[C@H](Oc7ccc(C#N)c(Cl)c7)CC6)nn5)CC4)C3)c2F)c(-c2cn(C)c(=O)c3[nH]ccc23)c1 [I-25] | < 500 | > 3000 | < 500 | < 500 | < 500 | < 500 | – | – | –
11 | CCS(=O)(=O)c1ccc(Oc2cccc(OCCN3CCN(c4ccc(C(=O)NC5CCC(Oc6ccc(C#N)c(Cl)c6)CC5)nn4)CC3)c2F)c(-c2cn(C)c(=O)c3[nH]ccc23)c1 (stereo not shown) [I-40, N-[4-(3-chloro-4-cyano-phenoxy)cyclohexyl]-6-[4-[2-[3-[4-ethylsulfonyl-2-(6-methyl-7-oxo-1H-pyrrolo[2,3-c]pyridin-4-yl)phenoxy]-2-fluoro-phenoxy]ethyl]piperazin-1-yl]pyridazine-3-carboxamide] | < 500 | < 500 | < 500 | < 500 | < 500 | < 500 | – | – | –
12 | Cn1cc(-c2cc(C(C)(C)O)ccc2Oc2ccc(N3CC(C4CCN(c5ccc(C(=O)N[C@H]6CC[C@H](Oc7ccc(C#N)c(Cl)c7)CC6)nn5)CC4)C3)cc2)c2cc[nH]c2c1=O [I-148] | < 500 | > 3000 | – | < 500 | 500 to 1500 | – | < 500 | < 500 | –
13 | CN(CCCOc1ccc(Oc2ccc(C(C)(C)O)cc2-c2cn(C)c(=O)c3[nH]ccc23)cc1)c1ccc(C(=O)N[C@H]2CC[C@H](Oc3ccc(C#N)c(Cl)c3)CC2)nn1 [I-99] | < 500 | < 500 | – | < 500 | 500 to 1500 | – | < 500 | 500 to 1500 | –
14 | CN(CCc1ccc(Oc2ccc(C(C)(C)O)cc2-c2cn(C)c(=O)c3[nH]ccc23)cc1)c1ccc(C(=O)NC2CCC(Oc3ccc(C#N)c(Cl)c3)CC2)nn1 (stereo not shown) [I-100, N-[4-(3-chloro-4-cyano-phenoxy)cyclohexyl]-6-[2-[4-[4-(1-hydroxy-1-methyl-ethyl)-2-(6-methyl-7-oxo-1H-pyrrolo[2,3-c]pyridin-4-yl)phenoxy]phenyl]ethyl-methyl-amino]pyridazine-3-carboxamide] | < 500 | < 500 | < 500 | < 500 | < 500 | < 500 | – | – | –
15 | Cn1cc(-c2cc(C(C)(C)O)ccc2Oc2ccc(OCC3CCN(c4ccc(C(=O)N[C@H]5CC[C@H](Oc6ccc(C#N)c(Cl)c6)CC5)nn4)CC3)cc2)c2cc[nH]c2c1=O [I-96] | < 500 | < 500 | – | < 500 | < 500 | – | < 500 | < 500 | –
